Key:
[1] = target: T1, SCAP protein (Mus musculus, UniProt Q6GQT6); test: Short-term in vivo model: Western blot of SCAP protein in the liver; set-up: species or system mice; conditions: FIG. 5F
T1 construct: from tissue; host or cells: mouse liver
T1 sequence (Q6GQT6 1-1276): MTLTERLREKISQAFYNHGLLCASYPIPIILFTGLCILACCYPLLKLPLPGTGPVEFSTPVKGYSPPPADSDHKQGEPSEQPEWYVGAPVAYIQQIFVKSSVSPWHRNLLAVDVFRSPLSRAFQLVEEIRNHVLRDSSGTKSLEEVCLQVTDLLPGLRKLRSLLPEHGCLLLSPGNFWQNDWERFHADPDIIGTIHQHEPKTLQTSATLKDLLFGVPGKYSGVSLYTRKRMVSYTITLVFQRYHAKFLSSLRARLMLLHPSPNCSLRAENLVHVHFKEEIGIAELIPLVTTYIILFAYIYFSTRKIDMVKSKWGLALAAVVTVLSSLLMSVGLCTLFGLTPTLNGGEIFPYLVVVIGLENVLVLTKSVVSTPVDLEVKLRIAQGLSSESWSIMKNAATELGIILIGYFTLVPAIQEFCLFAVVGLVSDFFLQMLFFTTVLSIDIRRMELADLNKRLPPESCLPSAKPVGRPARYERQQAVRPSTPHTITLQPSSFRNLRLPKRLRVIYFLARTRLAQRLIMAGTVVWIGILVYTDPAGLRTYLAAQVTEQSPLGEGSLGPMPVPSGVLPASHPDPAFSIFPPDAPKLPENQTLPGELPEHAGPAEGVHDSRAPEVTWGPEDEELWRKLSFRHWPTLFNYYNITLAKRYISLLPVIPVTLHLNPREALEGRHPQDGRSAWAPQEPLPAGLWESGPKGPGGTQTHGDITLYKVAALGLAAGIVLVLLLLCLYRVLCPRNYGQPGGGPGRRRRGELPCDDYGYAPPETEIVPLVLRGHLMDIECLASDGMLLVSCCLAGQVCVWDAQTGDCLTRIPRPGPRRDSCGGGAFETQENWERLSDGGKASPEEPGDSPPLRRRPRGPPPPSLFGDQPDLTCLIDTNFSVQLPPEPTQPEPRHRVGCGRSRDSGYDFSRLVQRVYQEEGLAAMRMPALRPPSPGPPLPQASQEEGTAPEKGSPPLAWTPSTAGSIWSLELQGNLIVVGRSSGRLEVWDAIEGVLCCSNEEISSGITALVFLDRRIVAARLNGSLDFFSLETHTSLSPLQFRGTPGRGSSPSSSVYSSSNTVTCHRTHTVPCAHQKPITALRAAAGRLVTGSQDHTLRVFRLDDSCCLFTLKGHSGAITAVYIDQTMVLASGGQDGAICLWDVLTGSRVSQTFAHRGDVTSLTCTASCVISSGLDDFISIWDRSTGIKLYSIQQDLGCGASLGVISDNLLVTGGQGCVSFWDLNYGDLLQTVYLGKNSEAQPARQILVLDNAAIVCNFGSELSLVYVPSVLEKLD
Procedure: To quickly and simultaneously examine their SREBP inhibitory activity and VDR-derived calcemic activity in vivo, a short-term in vivo screening system of mice was established. With reference to the previous report (Horton, J. D. et al. Proc. Natl. Acad. Sci. U.S.A. 1998, 95, 5987-5992.), mice were fasted for 48 hours then refed a special diet (low fat, high carbohydrate diet, lacking in vitamin D) for 48 hours before sacrifice. 10 mg/kg compounds or vehicle control were administered intraperitoneally once every 24 hours during the fasting and refeeding. Western blot analysis of SCAP protein in the livers obtained from the indicated mice were obtained, (FIG. 5F).

[2] = system: SREBP-responsive genes; test: Short-term in vivo model (fasting/refeeding): hepatic mRNA of SREBP-responsive genes by real-time PCR; set-up: species or system mice
Procedure: To quickly and simultaneously examine their SREBP inhibitory activity and VDR-derived calcemic activity in vivo, a short-term in vivo screening system of mice was established. With reference to the previous report (Horton, J. D. et al. Proc. Natl. Acad. Sci. U.S.A. 1998, 95, 5987-5992.), mice were fasted for 48 hours then refed a special diet (low fat, high carbohydrate diet, lacking in vitamin D) for 48 hours before sacrifice.
C57BL/6 and oh/oh mice were purchased from CLEA Japan and Charles River Japan, Inc., respectively. Animal experiments were carried out at the University of Tokyo and Charles River Laboratories. Low fat, high carbohydrate diet, lacking vitamin D was custom made by Research Diets, Inc. Compounds disclosed herein and 25(OH)D3 were dissolved in ethanol/Tween 20 (9:1) to obtain stock solution and then diluted 10-fold with PBS immediately before administration to mice.
10 mg/kg compounds or vehicle control were administered intraperitoneally once every 24 hours during the fasting and refeeding.
Relative mRNA levels of SREBP-responsive genes were determined by real-time PCR in the livers obtained from the mice with free access to a normal diet or fasted and refed a special diet (means SEM, n=3 per group), *p<0.05.
Expression levels of SREBP-responsive genes were determined by real-time PCR in the livers obtained from the mice treated with indicated compounds (10 mg/kg) according to the protocol illustrated in FIG. 5A. Data are expressed as relative expression to the mean value of vehicle-treated mouse liver (means±SEM, n=3 per group), *p<0.05 (FIG. 5C).
Relative mRNA levels of SREBP-responsive genes were determined by real-time PCR in the livers obtained from the indicated mice Data are means±SEM (fed mice, n=3; others, n=6), *p<0.05 (FIG. 5E).

increased hepatic expression of SCAP protein after fasting and refeeding [1]: canceled
SMILES: C[C@H](CCC(F)(F)C(C)(C)O)[C@H]1CC[C@H]2/C(=C/Cn3nnnc3-c3ccccc3)CCC[C@]12C [Compound 50, (R)-3,3-Difluoro-2-methyl-6-{(1R,3aS,7aR,E)-7a-methyl-4-[2-(5-phenyl-1H-tetrazol-1-yl)ethylidene]octahydro-1H-inden-1-yl}heptan-2-ol]
hepatic expression of SREBP-response genes ACC1 and FASN versus vehicle ([2]; 10 mg/kg intraperitoneally once every 24 hours, fasted 48 h/refed 48 h, n=3, FIG. 5C): significantly suppressed
elevated hepatic expression of the three SREBP-responsive genes ACC1, FASN and SCD1 ([2]; 10 mg/kg intraperitoneally, fasting/refeeding, FIG. 5C): mitigated the elevated expression
elevated hepatic expression of the four SREBP-responsive genes, repeated examination ([2]; 10 mg/kg, increased number of mice (n=6), FIG. 5E): significantly mitigated
